Results: US20220324865A1 (Bayer Aktiengesellschaft, priority 2018, published 2022)
Where a name gives a salt, the structure may show the parent alone.

The compounds below were run against T1, human EP3 receptor (Homo sapiens, UniProt P43115) (assay: Cellular in vitro assay for determining EP3 receptor activity (human EP3 cell line, sulprostone-stimulated calcium luminescence)). Details: CHO cells expressing human EP3 and mitochondrial Clytin; antagonist mode, sulprostone at EC50; read-out: EP3 CHO mtCLY ANTAG IC50.
T1 construct: expressed in transfected cells; host or cells: CHO K1 (Chinese Hamster Ovary), stably co-transfected with Galpha16 and mitochondrial clytin
T1 sequence (P43115 1-390): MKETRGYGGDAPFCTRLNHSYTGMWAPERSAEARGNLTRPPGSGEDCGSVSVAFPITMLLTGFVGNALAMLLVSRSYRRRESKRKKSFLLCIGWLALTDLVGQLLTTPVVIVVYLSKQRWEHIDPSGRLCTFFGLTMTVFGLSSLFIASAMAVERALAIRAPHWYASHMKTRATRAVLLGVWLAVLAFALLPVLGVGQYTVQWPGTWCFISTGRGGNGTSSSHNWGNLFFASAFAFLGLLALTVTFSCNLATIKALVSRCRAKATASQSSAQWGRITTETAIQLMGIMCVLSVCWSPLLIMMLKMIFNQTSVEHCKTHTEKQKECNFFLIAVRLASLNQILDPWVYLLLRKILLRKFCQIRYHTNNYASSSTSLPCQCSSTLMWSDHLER
Type: cell-based
Summary of the method: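 CHO K1 cells stably expressing human EP3 with Gα16 and mitochondrial Clytin, loaded overnight with coelenterazine. Compounds added 10 min before sulprostone at its EC50; antagonism read immediately as reduced calcium-driven luminescence, quadruplicate points.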

IC50	SMILES
8.27 nM	O=C(NC(CN1CCOCC1)c1ccc(F)cc1)c1cc2c(=O)[nH]c(-c3ccc4ccccc4c3)cn2n1 (stereo not drawn) [Example 1-40, N-[1-(4-Fluorophenyl)-2-morpholinoethyl]-6-(2-naphthyl)-4-oxo-5H-pyrazolo[1,5-a]pyrazine-2-carboxamide]
3.7 nM	CCN(CCO)CC(NC(=O)c1nn2cc(-c3cnc4cccc(C)c4c3)[nH]c(=O)c2c1C(C)C)c1ccccc1 (stereo not drawn) [Example 1-41, N-[2-[Ethyl(2-hydroxyethyl)amino]-1-phenylethyl]-3-isopropyl-6-(5-methyl-3-quinolyl)-4-oxo-5H-pyrazolo[1,5-a]pyrazine-2-carboxamide]
1.7 nM	O=C(NCC1CCCCC1)c1cc2c(=O)[nH]c(-c3ccc4c(c3)OCCO4)cn2n1 [Example 1-43, N-(Cyclohexylmethyl)-6-(2,3-dihydro-1,4-benzodioxin-6-yl)-4-oxo-4,5-dihydropyrazolo[1,5-a]-pyrazine-2-carboxamide]
8.97 nM	O=C(NC(CN1CCCC1)c1ccc(F)cc1)c1cc2c(=O)[nH]c(-c3ccc4ccccc4c3)cn2n1 (stereo not drawn) [Example 1-44, N-[1-(4-Fluorophenyl)-2-(pyrrolidin-1-yl)ethyl]-6-(2-naphthyl)-4-oxo-5H-pyrazolo[1,5-a]pyrazine-2-carboxamide]
2.85 nM	Cc1c(C(=O)N[C@H](C)c2ccc(F)cc2)nn2cc(-c3ccc4ccccc4c3)[nH]c(=O)c12 [Example 1-45, N-[(1R)-1-(4-Fluorophenyl)ethyl]-3-methyl-6-(naphthalen-2-yl)-4-oxo-4,5-dihydropyrazolo[1,5-a]-pyrazine-2-carboxamide]
4.65 nM	CC(C)(C)OC(=O)N1CC(NC(=O)c2cc3c(=O)[nH]c(-c4ccc5ccccc5c4)cn3n2)(c2ccc(F)cc2)C1 [Example 1-47, tert.-Butyl 3-(4-fluorophenyl)-3-({[6-(naphthalen-2-yl)-4-oxo-4,5-dihydropyrazolo[1,5-a]pyrazin-2-yl]carbonyl}amino)azetidine-1-carboxylate]
7.65 nM	CN1CC(NC(=O)c2cc3c(=O)[nH]c(-c4ccc5ccccc5c4)cn3n2)(c2ccc(F)cc2)C1 [Example 1-49, N-[3-(4-Fluorophenyl)-1-methylazetidin-3-yl]-6-(naphthalen-2-yl)-4-oxo-4,5-dihydropyrazolo-[1,5-a]pyrazine-2-carboxamide formic acid salt]
3.53 nM	COC(=O)N1CC(NC(=O)c2cc3c(=O)[nH]c(-c4ccc5ccccc5c4)cn3n2)(c2ccc(F)cc2)C1 [Example 1-50, Methyl 3-(4-fluorophenyl)-3-({[6-(naphthalen-2-yl)-4-oxo-4,5-dihydropyrazolo[1,5-a]pyrazin-2-yl]-carbonyl}amino)azetidine-1-carboxylate]
4 nM	COc1ccc([C@@H](C)NC(=O)c2cc3c(=O)[nH]c(-c4ccc5c(c4)COCC5)cn3n2)cn1 [Example 1-51, 6-(3,4-Dihydro-1H-isochromen-7-yl)-N-[(1R)-1-(6-methoxypyridin-3-yl)ethyl]-4-oxo-4,5-dihydropyrazolo[1,5-a]pyrazine-2-carboxamide]
6.95 nM	O=C(N[C@H](CCO)c1ccc(F)cc1)c1cc2c(=O)[nH]c(-c3ccc4ccccc4c3)cn2n1 [Example 1-52, N-[(1R)-1-(4-Fluorophenyl)-3-hydroxpropyl]-6-(naphthalen-2-yl)-4-oxo-4,5-dihydropyrazolo-[1,5-a]pyrazine-2-carboxamide]
0.82 nM	C[C@@H](NC(=O)c1nn2cc(-c3ccc4ccccc4c3)[nH]c(=O)c2c1C(F)(F)F)c1ccc(F)cc1 [Example 1-53, N-[(1R)-1-(4-Fluorophenyl)ethyl]-6-(naphthalen-2-yl)-4-oxo-3-(trifluoromethyl)-4,5-dihydropyrazolo[1,5-a]pyrazine-2-carboxamide]
3.65 nM	Cc1ccc(-c2cn3nc(C(=O)N[C@@H](c4ccccc4)C(C)(C)O)cc3c(=O)[nH]2)cc1C [Example 1-54, 6-(3,4-Dimethylphenyl)-N-[(1S)-2-hydroxy-2-methyl-1-phenylpropyl]-4-oxo-4,5-dihydropyrazolo-[1,5-a]pyrazine-2-carboxamide]
